One may read the Km as the substrate concentration at which the rate is half of its maximum.

The experiment relates to T1, LAC-Yang1.
T1 construct: native enzyme purified from culture supernatant (Cu2+ and syringic acid induced; ammonium sulfate, DEAE, Phenyl-6FF); only laccase band secreted by this strain
The experiment is described as follows: absorbance assay, Michaelis-Menten non-linear regression. The format is biochemical, Pleurotus ostreatus. The note with it: 50 mM acetate buffer pH 5.0, 30 °C, free enzyme. The text has this:
absorbance assay, Michaelis-Menten non-linear regression on LAC-Yang1

Consider `COc1ccccc1O` [guaiacol], for which, where the note is “465 nm”, the Michaelis constant (Km) came out at 810 ± 150 µM. In the case of `CCn1c(=NN=c2sc3cc(S(=O)(=O)O)ccc3n2CC)sc2cc(S(=O)(=O)O)ccc21` [ABTS, 2,2′-azino-bis-(3-ethylbenzothiazoline-6-sulfonic acid)], for the setting “420 nm”, the Km is 150 ± 50 µM. With 2,6-Dimethylphenol [2,6-DMP], the Km (470 nm, compound identity doubtful: paper spells 2,6-DMP as 2,6-Dimethylphenol, but 470 nm read-out is usual for 2,6-dimethoxyphenol) was 120 ± 30 µM.

Source of the values: article PMC7829762, “Characterization of a Novel Laccase LAC-Yang1 from White-Rot Fungus Pleurotus ostreatus Strain Yang1 with a Strong Ability to Degrade and Detoxify Chlorophenols” (Molecules, 2021).
